Here are results for 2 compounds from paper PMC7725843, “Structural and biochemical analyses of an aminoglycoside 2′-N-acetyltransferase from Mycolicibacterium smegmatis” (Scientific Reports, 2020).

In assay [1] the target is T1, AAC(2′)-Id (Mycolicibacterium smegmatis, UniProt P94968).
T1 construct: full-length ORF (630 bp), codon-optimised synthetic gene in pET-28a(+), E. coli BL21(DE3); N-terminal His-tag cut with thrombin; homodimer
Put plainly: X-ray crystal structure. Format: binding. Conditions: ternary complexes with gentamicin, sisomicin, neomycin or paromomycin; 5 mM CoA.

In assay [2] the target is T1, AAC(2′)-Id. Put plainly: DTNB assay of CoA release at […] nm, Michaelis-Menten fit. To be noted: 300 μM acetyl-CoA, 50 mM MES pH 6.5, 200 μM DTNB, 25 °C. Type of assay: biochemical.

T1 sequence (P94968 whole entry): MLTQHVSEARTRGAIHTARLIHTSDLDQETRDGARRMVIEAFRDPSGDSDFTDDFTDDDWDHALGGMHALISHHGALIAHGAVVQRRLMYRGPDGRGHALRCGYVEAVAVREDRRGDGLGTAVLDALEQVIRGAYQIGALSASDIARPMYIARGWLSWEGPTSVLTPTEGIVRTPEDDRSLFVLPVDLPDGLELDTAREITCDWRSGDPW

Regarding `CC(C)(COP(=O)(O)OP(=O)(O)OC[C@H]1O[C@@H](n2cnc3c(N)ncnc32)[C@H](O)[C@@H]1OP(=O)(O)O)[C@@H](O)C(=O)NCCC(=O)NCCS` [CoA], the X-ray crystal structure result at AAC(2′)-Id [1] is recorded as “chain B contains only a CoA molecule”.

For `CN[C@@H]1[C@@H](O)[C@@H](O[C@@H]2[C@@H](O)[C@H](O[C@H]3OC(CN)=CC[C@H]3N)[C@@H](N)C[C@H]2N)OC[C@]1(C)O` [Sisomicin], at AAC(2′)-Id [2], the “Km (μM)” value is “(7.30 ± 0.58) × 10 μM”.
